Key:
peripheral ONP = settings: lidocaine injection; reference 12; cited from earlier work
[1] = test system: participants with peripheral ongoing neuropathic pain (p-ONP) / peripheral neuropathy; experiment: Lidocaine patch cross-over trial (Example 2A): pain VAS and DLss C:Aδ ratio; format: in vivo, human; settings: lidocaine patch (5%) or placebo patch, 7 day treatment, p<0.01
Protocol: 70 p-ONP participants to with mean pain VAS >40 mm who undergo baseline DLss, and pain measures. Response to VAS was compared to change in C:Aδ ratio following treatment with peripherally active lidocaine patch (5%), or placebo patch using a 7 day treatment cross-over design with 14 day washout between treatment arms.
• Diode laser for selective stimulation (DLss) testing of C:Aδ ratio. Detection and pain thresholds for fiber-selective laser stimulation was performed with Lass-10M, as previously described (patents U.S. Pat. No. 7,402,167B2 and U.S. Pat. No. 8,029,553B2). The foot dorsum was shaved to limit light absorption and overheating. Skin temperature on the dorsal foot will be monitored and maintained at 32-33° C. using periodic heating pad warming. • Laser detection and pain thresholds (separately for Aδ and C fiber stimulation) were quantified using the “method of levels” on a 6×6 cm stimulus grid drawn on the foot dorsum, shifting location and using a series of ascending stimulations starting from sub-detection intensity, increasing by fixed increments with the highest stimulation determined by participant reporting a painful sensation with intensity between 30 and 40 on the 0-100 VAS. […] Blood perfusion was recorded by Speckle Imaging (PeriCam PSI System, Perimed, Sweden), following DLss stimulus using the C fiber protocol above. […]

[2] = test system: CMi fibers (axon flare) in rhesus monkeys; experiment: DLss induced axon flare before and after intradermal lidocaine injection; format: in vivo; settings: intradermal 2.0% lidocaine injection; four rhesus monkeys; saline subdermal injection as control
Text: Lidocaine is a wide spectrum sodium channel blocker that is used clinically as a dermal patch or intradermal injection 97-99 for treatment of peripheral neuropathic pain 3, 99. […] C and Aδ fibers are differentially affected by lidocaine treatment 99-101, and suppression of repetitive CMi activation that mimics spontaneous activity is a potent consequence of lidocaine treatment 100. Flare response in rhesus monkeys, a primate animal model for human neuropathic pain generation and nociceptor dynamics was similar to that observed in healthy subjects (FIG. 2). A total of four monkeys were tested. DLss induced flare was evaluated before and after intradermal 2.0% lidocaine injection and saline subdermal injection was used as a control. […]
• Diode laser for selective stimulation (DLss) testing of C:Aδ ratio. […] Skin temperature on the dorsal foot will be monitored and maintained at 32-33° C. using periodic heating pad warming. • Laser detection and pain thresholds (separately for Aδ and C fiber stimulation) were quantified using the “method of levels” on a 6×6 cm stimulus grid drawn on the foot dorsum, shifting location and using a series of ascending stimulations starting from sub-detection intensity, increasing by fixed increments with the highest stimulation determined by participant reporting a painful sensation with intensity between 30 and 40 on the 0-100 VAS. […]

CCN(CC)CC(=O)Nc1c(C)cccc1C [lidocaine]
block of peripheral ONP (peripheral ONP): completely block | Change in C:Aδ ratio, lidocaine versus placebo treatment groups [1]: distinguish lidocaine from placebo treatment groups | axon flare area after injection compared to saline [2]: markedly reduced

From US20230034978A1, “PROCESS FOR MEASURING EFFICACY OF PAIN THERAPY” (priority 2021, published 2023)
